Literature values as cited in US9585827B2, “Kits comprising a beverage composition and information for use” (The Procter & Gamble Company, priority 2000, dated 2017).

Legend:
dental caries = settings: Städtler et al. 1996; toothpaste formulations of near-neutral pH
[1] = Reussner et al. 1975; phosphate added to low pH powdered beverage compositions

Row | SMILES | effect against dental caries (dental caries) | protective effect against molar erosion [1]
1 | O=P1([O-])OP(=O)([O-])OP(=O)([O-])O1.[Na+].[Na+].[Na+] [trimetaphosphate] | may be effective against dental caries | –
2 | O=P1([O-])OP(=O)([O-])OP(=O)([O-])OP(=O)([O-])OP(=O)([O-])OP(=O)([O-])O1.[Na+].[Na+].[Na+].[Na+].[Na+].[Na+] [sodium hexametaphosphate] | – | did not produce significant protective effects
